From patent US11807625B2, “Capsid inhibitors for the prevention of HIV” (Gilead Sciences, Inc., priority 2019, dated 2023)
Like-named read-outs stand apart in the source and are kept apart here.

Experiment: PK of compound of Formula (Ia) after single intramuscular dose of solution formulations in Wistar Han rats
Assay type: in vivo
Conditions: for Plasma concentration: 0 h; for Plasma concentration / concentration at 48 h / concentration at 1 h / concentration at 24 h / concentration at 72 h / concentration at 96 h / concentration at 168 h / concentration at 3 h / concentration at 8 h: IM 100 mg/kg; for concentration at 48 h / concentration at 1 h / concentration at 24 h / concentration at 72 h / concentration at 96 h / concentration at 168 h / AUC(0-t) / concentration at 3 h / concentration at 8 h: Wistar Han, rat, plasma, 100 mg/kg; for concentration at 48 h / concentration at 1 h / concentration at 24 h / concentration at 72 h / concentration at 96 h / concentration at 168 h / concentration at 3 h / concentration at 8 h: intramuscular; for AUC(0-t): im, single IM 100 mg/kg, male Wistar Han rats, mean ± SD
Method: Formulations containing the compound of Formula (Ia), or a pharmaceutically acceptable salt thereof, were prepared as solutions and optionally administered subcutaneously or intramuscularly to rats, rabbits, and/or dogs.
A solution of about 400 mg/ml of the compound of Formula (Ia) having 21.13 w/w % water, 45.25 w/w % PEG 300, and 33.61 w/w % of a sodium salt of a compound of Formula (Ia) was prepared. The solution was administered intramuscularly to Wistar Han rats at a dose of about 100 mg/kg and beagle dogs at a dose of about 30 mg/kg.
A solution of about 400 mg/ml of the compound of Formula (Ia) having 19.18 w/w % water, 41.09 w/w % PEG 300, 33.61 w/w % of a sodium salt of a compound of Formula (Ia), and 6.12 w/w % poloxamer 188 was prepared. The solution was administered intramuscularly to Wistar Han rats at a dose of about 100 mg/kg and beagle dogs at a dose of about 30 mg/kg.
(§1) A solution of about 500 mg/ml of the compound of Formula (Ia) having 16.93 w/w % water, 36.22 w/w % PEG 300, 41.85 w/w % of a sodium salt of a compound of Formula (Ia), and 5.00% ethanol was prepared. The solution was administered intramuscularly to Wistar Han rats at a dose of about 100 mg/kg and beagle dogs at a dose of about 30 mg/kg.
as §1, with “14.50” for “16.93”, “31.04” for “36.22”, “(Ia), 5.00% ethanol,” for “(Ia),”, “7.61 w/w % poloxamer 188” for “5.00% ethanol”

[1] = Solution H (~400 mg/mL), Wistar Han rats, mean, n = 4, read-out: Plasma concentration, Mean
[2] = Solution K (~500 mg/mL, ethanol), Wistar Han rats, individual animals #1-#4, read-out: Plasma concentration
[3] = Solution K (~500 mg/mL, ethanol), Wistar Han rats, mean, n = 4, read-out: Plasma concentration, Mean
[4] = male, individual rats, solution M, 500 mg/mL, read-out: Plasma concentration
[5] = male, mean, n = 4 rats, solution M, 500 mg/mL, read-out: Plasma concentration
[6] = male, Solution H (~400 mg/mL), Wistar Han rats, mean, n = 4, read-out: Plasma concentration, Mean
[7] = male, Solution J (~400 mg/mL, poloxamer 188), Wistar Han rats, individual animals #1-#4, read-out: Plasma concentration
[8] = male, Solution J (~400 mg/mL, poloxamer 188), Wistar Han rats, mean, n = 4, read-out: Plasma concentration, Mean
[9] = male, Solution K (~500 mg/mL, ethanol), Wistar Han rats, individual animals #1-#4, read-out: Plasma concentration
[10] = male, Solution K (~500 mg/mL, ethanol), Wistar Han rats, mean, n = 4, read-out: Plasma concentration, Mean

- Plasma concentration (individual rats, solution M, 500 mg/mL): BLQ
- Plasma concentration (Solution H (~400 mg/mL), Wistar Han rats, individual animals #1-#4): BLQ
- Plasma concentration (Solution J (~400 mg/mL, poloxamer 188), Wistar Han rats, individual animals #1-#4): BLQ
- Plasma concentration (Solution K (~500 mg/mL, ethanol), Wistar Han rats, individual animals #1-#4): BLQ
- concentration at 48 h (Solution H (~400 mg/mL), Wistar Han rats, individual animals #1-#4, read-out: Plasma concentration): 354 nM
- concentration at 1 h [1]: 150 nM
- concentration at 24 h [1]: 439 nM
- concentration at 48 h [1]: 471 nM
- concentration at 72 h [1]: 397 nM
- concentration at 96 h [1]: 477 nM
- concentration at 168 h [1]: 588 nM
- concentration at 72 h [2]: 516 nM
- concentration at 96 h [2]: 537 nM
- concentration at 168 h [2]: 640 nM
- concentration at 1 h [3]: 146 nM
- concentration at 72 h [3]: 433 nM
- concentration at 96 h [3]: 401 nM
- concentration at 168 h [3]: 507 nM
- AUC(0-t) (male, Solution H (~400 mg/mL; Na salt, water, PEG 300), n = 4, read-out: AUC0-24h): 7.59 ± 2.93 µM·h
- AUC(0-t) (male, Solution H (~400 mg/mL; Na salt, water, PEG 300), n = 4, read-out: AUC0-168h): 77.7 ± 26.1 µM·h
- AUC(0-t) (male, Solution J (~400 mg/mL; Na salt, water, PEG 300, poloxamer 188), n = 4, read-out: AUC0-24h): 12.1 ± 1.9 µM·h
- AUC(0-t) (male, Solution J (~400 mg/mL; Na salt, water, PEG 300, poloxamer 188), n = 4, read-out: AUC0-168h): 82.5 ± 8.7 µM·h
- AUC(0-t) (male, Solution K (~500 mg/mL; Na salt, water, PEG 300, ethanol), n = 4, read-out: AUC0-24h): 6.13 ± 1.7 µM·h
- AUC(0-t) (male, Solution K (~500 mg/mL; Na salt, water, PEG 300, ethanol), n = 4, read-out: AUC0-168h): 67.4 ± 15.7 µM·h
- AUC(0-t) (male, Solution M (~500 mg/mL; Na salt, water, PEG 300, ethanol, poloxamer 188), n = 4, read-out: AUC0-24h): 13.4 ± 2.4 µM·h
- AUC(0-t) (male, Solution M (~500 mg/mL; Na salt, water, PEG 300, ethanol, poloxamer 188), n = 4, read-out: AUC0-168h): 92.9 ± 9.6 µM·h
- concentration at 1 h [4]: 177 nM
- concentration at 1 h [5]: 184 nM
- concentration at 3 h [4]: 304 nM
- concentration at 3 h [5]: 405 nM
- concentration at 8 h [4]: 443 nM
- concentration at 8 h [5]: 544 nM
- concentration at 24 h [4]: 737 nM
- concentration at 24 h [5]: 750 nM
- concentration at 48 h [4]: 623 nM
- concentration at 48 h [5]: 622 nM
- concentration at 72 h [5]: 426 nM
- concentration at 96 h [4]: 593 nM
- concentration at 96 h [5]: 526 nM
- concentration at 168 h [4]: 504 nM
- concentration at 168 h [5]: 560 nM
- concentration at 3 h (male, Solution H (~400 mg/mL), Wistar Han rats, individual animals #1-#4, read-out: Plasma concentration): 179 nM
- concentration at 3 h [6]: 245 nM
- concentration at 8 h [6]: 285 nM
- concentration at 3 h [7]: 463 nM
- concentration at 8 h [7]: 510 nM
- concentration at 24 h [7]: 761 nM
- concentration at 48 h [7]: 716 nM
- concentration at 72 h [7]: 526 nM
- concentration at 96 h [7]: 506 nM
- concentration at 168 h [7]: 481 nM
- concentration at 1 h [8]: 249 nM
- concentration at 3 h [8]: 445 nM
- concentration at 8 h [8]: 507 nM
- concentration at 24 h [8]: 605 nM
- concentration at 48 h [8]: 558 nM
- concentration at 72 h [8]: 452 nM
- concentration at 96 h [8]: 461 nM
- concentration at 168 h [8]: 467 nM
- concentration at 24 h [9]: 438 nM
- concentration at 48 h [9]: 439 nM
- concentration at 3 h [10]: 209 nM
- concentration at 8 h [10]: 218 nM
- concentration at 24 h [10]: 361 nM
- concentration at 48 h [10]: 376 nM
SMILES: CC(C)(C#Cc1ccc(-c2ccc(Cl)c3c(NS(C)(=O)=O)nn(CC(F)(F)F)c23)c([C@H](Cc2cc(F)cc(F)c2)NC(=O)Cn2nc(C(F)(F)F)c3c2C(F)(F)[C@@H]2C[C@H]32)n1)S(C)(=O)=O [compound of Formula (Ia)]
